Source: ChEMBL document CHEMBL1157922, “Design of new dopamine D2 receptor ligands: biosynthesis and pharmacological evaluation of the hydroxylated metabolite of LASSBio-581” (Bioorg Med Chem Lett, 2010)

Tests used:
[1] = Displacement of [3H]YM-9151-2 from D2 like receptor in rat striatal membrane; type: cell membranes, Striatum
[2] = biological target: 5-hydroxytryptamine receptor 2A (Rattus norvegicus, UniProt P14842); assay: Displacement of [3H]ketanserin from 5HT2A receptor in rat cortex membrane; type: cell membranes
5-hydroxytryptamine receptor 2A, sequence (P14842 whole entry): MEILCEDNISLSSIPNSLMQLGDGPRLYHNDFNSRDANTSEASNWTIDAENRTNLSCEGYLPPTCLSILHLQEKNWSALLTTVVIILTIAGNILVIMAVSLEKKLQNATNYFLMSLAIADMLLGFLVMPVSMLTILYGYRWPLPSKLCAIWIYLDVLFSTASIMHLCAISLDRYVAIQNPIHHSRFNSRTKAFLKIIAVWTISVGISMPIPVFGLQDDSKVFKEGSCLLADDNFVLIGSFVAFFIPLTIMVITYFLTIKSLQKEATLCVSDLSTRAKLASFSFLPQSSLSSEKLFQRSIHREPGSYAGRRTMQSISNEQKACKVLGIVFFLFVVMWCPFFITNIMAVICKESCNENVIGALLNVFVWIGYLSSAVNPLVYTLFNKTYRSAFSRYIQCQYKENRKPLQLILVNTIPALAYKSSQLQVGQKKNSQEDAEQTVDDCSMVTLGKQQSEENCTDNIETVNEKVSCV

| Ki [1] | Ki [2] | SMILES |
| --- | --- | --- |
| 1700 nM |  | Oc1ccc(N2CCN(Cc3cn(-c4ccc(Cl)cc4)nn3)CC2)cc1 |
| 950 nM | 11000 nM | Clc1ccc(-n2cc(CN3CCN(c4ccccc4)CC3)nn2)cc1 |
